Data taken from ChEMBL document CHEMBL5303573, “Mapping human microbiome drug metabolism by gut bacteria and their genes” (Nature, 2019).

What was measured:
[1] = The drug is tested on Bifidobacterium longum subsp. Infantis strain: CCUG52486 for biotransformation. The drug concentrations were measured before and after a 12-h incubation by liquid-chromatography-coupled mass spectrometry (LC–MS); conditions: 2 µM
[2] = The drug is tested on Collinsella aerofaciens strain: ATCC25986 for biotransformation. The drug concentrations were measured before and after a 12-h incubation by liquid-chromatography-coupled mass spectrometry (LC–MS); conditions: 2 µM
[3] = The drug is tested on Bacteroides caccae strain: ATCC43185 for biotransformation. The drug concentrations were measured before and after a 12-h incubation by liquid-chromatography-coupled mass spectrometry (LC–MS); conditions: 2 µM
[4] = The drug is tested on Anaerococcus hydrogenalis strain: DSM7454 for biotransformation. The drug concentrations were measured before and after a 12-h incubation by liquid-chromatography-coupled mass spectrometry (LC–MS); conditions: 2 µM
[5] = The drug is tested on Clostridium symbiosum strain: ATCC14940 for biotransformation. The drug concentrations were measured before and after a 12-h incubation by liquid-chromatography-coupled mass spectrometry (LC–MS); conditions: 2 µM
[6] = The drug is tested on Dorea formicigenerans strain: ATCC27755 for biotransformation. The drug concentrations were measured before and after a 12-h incubation by liquid-chromatography-coupled mass spectrometry (LC–MS); conditions: 2 µM
[7] = The drug is tested on Eubacterium ventriosum strain: ATCC27560 for biotransformation. The drug concentrations were measured before and after a 12-h incubation by liquid-chromatography-coupled mass spectrometry (LC–MS); assay type: ADME; parameters: dose 2 uM, timepoint 0 vs 12 hours; conditions: 2 µM
[8] = The drug is tested on Ruminococcus lactaris strain: ATCC29176 for biotransformation. The drug concentrations were measured before and after a 12-h incubation by liquid-chromatography-coupled mass spectrometry (LC–MS); conditions: 2 µM
[9] = The drug is tested on Subdoligranulum variabile strain: DSM15176 for biotransformation. The drug concentrations were measured before and after a 12-h incubation by liquid-chromatography-coupled mass spectrometry (LC–MS); conditions: 2 µM
[10] = The drug is tested on Edwardsiella tarda strain: ATCC23685 for biotransformation. The drug concentrations were measured before and after a 12-h incubation by liquid-chromatography-coupled mass spectrometry (LC–MS); conditions: 2 µM
[11] = The drug is tested on Escherichia coli strain: BW25113 for biotransformation. The drug concentrations were measured before and after a 12-h incubation by liquid-chromatography-coupled mass spectrometry (LC–MS); conditions: 2 µM
[12] = bifidobacterium adolescentis, 12 h, 2 µM
Description: The drug is tested on Bifidobacterium adolescentis strain: ATCC 15703 for biotransformation. The drug concentrations were measured before and after a 12-h incubation by liquid-chromatography-coupled mass spectrometry (LC–MS)

[13] = bacteroides fragilis, 12 h, 2 µM
Description: The drug is tested on Bacteroides fragilis strain: NCTC 9343 for biotransformation. The drug concentrations were measured before and after a 12-h incubation by liquid-chromatography-coupled mass spectrometry (LC–MS)

[14] = bacteroides fragilis, 12 h, 2 µM; remark: listed apart in the source
Description: The drug is tested on Bacteroides fragilis strain: 3397 (T10) for biotransformation. The drug concentrations were measured before and after a 12-h incubation by liquid-chromatography-coupled mass spectrometry (LC–MS)

[15] = bacteroides fragilis, 12 h, 2 µM; remark: listed apart in the source
Description: The drug is tested on Bacteroides fragilis strain: DS-208 for biotransformation. The drug concentrations were measured before and after a 12-h incubation by liquid-chromatography-coupled mass spectrometry (LC–MS)

[16] = parabacteroides distasonis, 12 h, 2 µM
Description: The drug is tested on Parabacteroides distasonis strain: ATCC8503 for biotransformation. The drug concentrations were measured before and after a 12-h incubation by liquid-chromatography-coupled mass spectrometry (LC–MS)

[17] = anaerostipes sp., 12 h, 2 µM
Description: The drug is tested on Anaerostipes sp. strain: fecal isolate for biotransformation. The drug concentrations were measured before and after a 12-h incubation by liquid-chromatography-coupled mass spectrometry (LC–MS)

[18] = The drug is tested on Clostridium sp. strain: fecal isolate for biotransformation. The drug concentrations were measured before and after a 12-h incubation by liquid-chromatography-coupled mass spectrometry (LC–MS); conditions: 2 µM
[19] = The drug is tested on Ruminococcus gnavus strain: ATCC29149 for biotransformation. The drug concentrations were measured before and after a 12-h incubation by liquid-chromatography-coupled mass spectrometry (LC–MS); conditions: mediterraneibacter gnavus, 2 µM

| Structure (SMILES) | Bacterial Biotransformation [1] | Bacterial Biotransformation [2] | Bacterial Biotransformation [3] | Bacterial Biotransformation [4] | Bacterial Biotransformation [5] | Bacterial Biotransformation [6] | Bacterial Biotransformation [7] | Bacterial Biotransformation [8] | Bacterial Biotransformation [9] | Bacterial Biotransformation [10] | Bacterial Biotransformation [11] | Bacterial Biotransformation [12] | Bacterial Biotransformation [13] | Bacterial Biotransformation [14] | Bacterial Biotransformation [15] | Bacterial Biotransformation [16] | Bacterial Biotransformation [17] | Bacterial Biotransformation [18] | Bacterial Biotransformation [19] |
| --- | --- | --- | --- | --- | --- | --- | --- | --- | --- | --- | --- | --- | --- | --- | --- | --- | --- | --- | --- |
| O=c1n(CCCN2CCN(c3cccc(Cl)c3)CC2)nc2ccccn12 [TRAZODONE] | Compound NOT metabolized | Compound NOT metabolized | Compound NOT metabolized | Compound NOT metabolized | Compound NOT metabolized | Compound NOT metabolized | Compound NOT metabolized | Compound NOT metabolized | Compound NOT metabolized | Compound NOT metabolized | Compound NOT metabolized | Compound NOT metabolized | Compound NOT metabolized | Compound NOT metabolized | Compound NOT metabolized | Compound NOT metabolized | Compound NOT metabolized | – | – |
| CN1C(C(=O)Nc2ccccn2)=C(O)c2sccc2S1(=O)=O [TENOXICAM] | Compound NOT metabolized | Compound NOT metabolized | Compound NOT metabolized | Compound NOT metabolized | Compound NOT metabolized | Compound NOT metabolized | Compound NOT metabolized | Compound NOT metabolized | Compound NOT metabolized | Compound NOT metabolized | Compound NOT metabolized | Compound NOT metabolized | – | Compound NOT metabolized | – | – | Compound NOT metabolized | Compound NOT metabolized | Compound NOT metabolized |
| Nc1c2c(nc3ccccc13)CCCC2 [TACRINE] | Compound NOT metabolized | Compound NOT metabolized | Compound NOT metabolized | Compound NOT metabolized | Compound NOT metabolized | Compound NOT metabolized | Compound NOT metabolized | Compound NOT metabolized | Compound NOT metabolized | Compound NOT metabolized | – | Compound NOT metabolized | – | – | Compound NOT metabolized | Compound NOT metabolized | Compound NOT metabolized | Compound NOT metabolized | Compound NOT metabolized |
| O=C1CC2(CCCC2)CC(=O)N1CCCCN1CCN(c2ncccn2)CC1 [BUSPIRONE] | Compound NOT metabolized | Compound NOT metabolized | Compound NOT metabolized | Compound NOT metabolized | Compound NOT metabolized | Compound NOT metabolized | Compound NOT metabolized | Compound NOT metabolized | Compound NOT metabolized | Compound NOT metabolized | – | Compound NOT metabolized | Compound NOT metabolized | Compound NOT metabolized | Compound NOT metabolized | Compound NOT metabolized | Compound NOT metabolized | Compound NOT metabolized | Compound NOT metabolized |
| CN[C@H]1CC[C@@H](c2ccc(Cl)c(Cl)c2)c2ccccc21 [SERTRALINE] | Compound NOT metabolized | Compound NOT metabolized | Compound NOT metabolized | Compound NOT metabolized | Compound NOT metabolized | Compound NOT metabolized | – | Compound NOT metabolized | Compound NOT metabolized | Compound NOT metabolized | Compound NOT metabolized | Compound NOT metabolized | Compound NOT metabolized | Compound NOT metabolized | Compound NOT metabolized | Compound NOT metabolized | Compound NOT metabolized | – | Compound NOT metabolized |
| Cc1cn([C@H]2C[C@H](N=[N+]=[N-])[C@@H](CO)O2)c(=O)[nH]c1=O [ZIDOVUDINE] | Compound NOT metabolized | – | Compound NOT metabolized | Compound metabolized | Compound NOT metabolized | – | – | Compound NOT metabolized | Compound NOT metabolized | Compound NOT metabolized | Compound NOT metabolized | Compound NOT metabolized | – | Compound metabolized | – | Compound NOT metabolized | – | – | – |
| Br.CN1CCC[C@@H]1Cc1c[nH]c2ccc(CCS(=O)(=O)c3ccccc3)cc12 [ELETRIPTAN HYDROBROMIDE] | Compound NOT metabolized | Compound NOT metabolized | Compound NOT metabolized | Compound NOT metabolized | Compound NOT metabolized | Compound NOT metabolized | Compound NOT metabolized | Compound NOT metabolized | Compound NOT metabolized | Compound NOT metabolized | – | Compound NOT metabolized | Compound NOT metabolized | Compound NOT metabolized | Compound NOT metabolized | Compound NOT metabolized | Compound NOT metabolized | Compound NOT metabolized | Compound NOT metabolized |
| COC1=CC(=O)C[C@@H](C)[C@]12Oc1c(Cl)c(OC)cc(OC)c1C2=O [GRISEOFULVIN] | Compound NOT metabolized | Compound NOT metabolized | Compound NOT metabolized | Compound NOT metabolized | Compound NOT metabolized | Compound NOT metabolized | Compound NOT metabolized | – | Compound NOT metabolized | Compound NOT metabolized | – | Compound NOT metabolized | Compound metabolized | Compound metabolized | Compound metabolized | Compound metabolized | Compound NOT metabolized | Compound metabolized | Compound metabolized |
